Assay results as given in US20070254882A1, “Sulfamide Derivatives and Pharmaceutical Composition for Upregulation of Lipid Metabolism Comprising Same” (CRYSTAL GENOMICS, INC., priority 2004, published 2007).

Molecular target: T1, human PPAR α (Homo sapiens, UniProt Q07869)
T1 construct: expressed in transfected cells; host or cells: HepG2 (ATCC HB-8065) or 293T cells (ATCC CRL-1573)
T1 sequence (Q07869 239-466 limits assumed): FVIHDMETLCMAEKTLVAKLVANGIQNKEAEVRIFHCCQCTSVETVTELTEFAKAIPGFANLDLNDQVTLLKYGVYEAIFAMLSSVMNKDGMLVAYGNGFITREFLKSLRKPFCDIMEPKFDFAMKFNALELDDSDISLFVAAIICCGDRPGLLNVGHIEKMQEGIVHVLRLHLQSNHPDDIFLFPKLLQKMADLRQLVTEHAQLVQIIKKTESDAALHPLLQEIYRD
Experiment: Exogeneous PPAR α agonist assay (GAL4 DNA binding domain/PPAR α ligand binding domain, luciferase) in 293T cells
Assay type: cell-based
Set-up: scale not given here
Conditions: 25 μM compound, 48 hours, luciferase activity increase relative to the control
Experimental: Step 1) Exogeneous PPAR α Agonist Assay
Cross-activation assay of the compounds of Examples 1 to 134 against human PPAR α was carried out using a DNA construct of PPAR α including its ligand binding domain and GAL4 DNA binding domain (Sher et al., Biochemistry 32, 5598-5604, 1993) to analyze whether any of the compounds binds to the ligand binding domain of PPAR α expressed by the construct to affect the PPAR α activity. When the GAL4 DNA binding domainm which is fused with PPAR α ligand binding domain, binds to UAS (upstream activation sequence) of firefly-luciferase, the luciferase is expressed. Therefore, the effect of each of the compounds of Examples on PPAR α activation can be evaluated by analyzing the activation of luciferase.
Specifically, 2×10^4 of HepG2 (ATCC HB-8065) or 293T cells (ATCC CRL-1573) were aliquotted into each well of a 96-well plate and cultured for overnight at 37° C. in a CO2 incubator (culture condition: DMEM, 10% FBS and 1% antibiotics).
The transformation of PPAR α DNA was traced as follows. First, a mixture of the following ingredients in amounts per well; Solution A (Promega) containing 50 ng of full length human PPAR α DNA, 50 ng of firefly-luciferase construct, 5 ng of Renilla-luciferase construct, 1.0 μl of PLUS™ reagent, and 8.3 μl of a serum-free medium containing no antibiotics; was prepared and kept at room temperature for 15 min. Solution B, which contained 0.5 μl of Lipofectamine™ reagent and 9.5 μl of serum-free medium without antibiotics per well, and Solution C, which contained 50 μl of serum-free medium per well), were prepared. Solutions A, B and C were mixed together to prepare lipofectamin-DNA complex, and the mixture was kept at room temperature for 15 min. Single layer of cells on each well of a 96-well plate were washed with serum-free DMEM, 70 μl of lipofectamine-DNA complex prepared above was added thereto, the plate was incubated at 37° C. in a 5% CO2 incubator for 3 hours to transform the cells, and […] of a diluted solution of each of the compounds of Examples 1 to 134 per well was added to each well to a final concentration 25 μM, and incubated at 37° C. in a CO2 incubator for 48 hours. Then, the medium was removed, 50 μl of passive lysis buffer (Promega) was added thereto, and the plate was shook at room temperature for 20 min to lysis cells. 40 μl of Luciferase Assay reagent of Dual Luciferase Kit […] per 20 μl of cell lysis buffer was added to the plate, followed by reacting at 20° C. for 8 seconds, and 40 μl of Stop & Glo reagent (Promega) as a stop solution was added thereto to quench the reaction. The luminescence intensities of F-luciferase and R-luciferase were measured with MicroLumat Plus (Berthord Technology).

Cc1oc(-c2ccc(C(F)(F)F)cc2)nc1COc1cccc(CN(CC(=O)O)S(=O)(=O)N(C)c2ccc(Cl)cc2)c1 [Example 20, [N—[[N-methyl-N-(4-chlorophenyl)]amino]sulfonyl-N-[3-[[2-(4-trifluoromethylphenyl)-5-methyloxazol-4-yl]methoxy]benzyl]amino]acetic acid]
Activity at 25 μM Step 1 293T cell: 2

Cc1ccc(-c2nc(CCOc3cccc(CN(CC(=O)O)S(=O)(=O)N4CCOCC4)c3)c(C)o2)cc1 [Example 86, [N-(morpholinyl)sulfonyl-N-[3-[2-[2-(4-methylphenyl)-5-methyloxazol-4-yl]ethoxy]benzyl]amino]acetic acid]
Activity at 25 μM Step 1 293T cell: 2

Cc1oc(-c2ccc(C(F)(F)F)cc2)nc1COc1cccc(CN(CC(=O)O)S(=O)(=O)N2CCCc3ccccc32)c1 [Example 36, [N-(1,2,3,4-tetraquinolinyl)sulfonyl-N-[3-[[2-(4-trifluoromethylphenyl)-5-methyloxazol-4-yl]methoxy]benzyl]amino]acetic acid]
Activity at 25 μM Step 1 293T cell: 2

Cc1ccc(-c2nc(CCOc3cccc(CN(CC(=O)O)S(=O)(=O)N4CCN(C)CC4)c3)c(C)o2)cc1 [Example 88, [N-(4-methyl-1-piperazinyl)sulfonyl-N-[3-[2-[2-(4-methylphenyl)-5-methyloxazol-4-yl]ethoxy]benzyl]amino]acetic acid]
Activity at 25 μM Step 1 293T cell: 1

Cc1oc(-c2ccc(C(F)(F)F)cc2)nc1CCOc1cccc(CN(CC(=O)O)S(=O)(=O)N2CCCC2)c1 [Example 85, [N-(pyrrolidinyl)sulfonyl-N-[3-[2-[2-(4-trifluoromethylphenyl)-5-methyloxazol-4-yl]ethoxy]benzyl]amino]acetic acid]
Activity at 25 μM Step 1 293T cell: 1

Cc1oc(-c2ccccc2)nc1COc1ccc(CN(CC(=O)O)S(=O)(=O)N2CCc3ccccc32)cc1 [Example 53, [N-(indolinyl)sulfonyl-N-[4-[(2-phenyl-5-methyloxazol-4-yl)methoxy]benzyl]amino]acetic acid]
Activity at 25 μM Step 1 293T cell: 2

Cc1oc(-c2ccccc2)nc1COc1cccc(CN(CC(=O)O)S(=O)(=O)N2CCCc3ccccc32)c1 [Example 34, [N-(1,2,3,4-tetrahydroquinolinyl)sulfonyl-N-[3-[(2-phenyl-5-methyloxazol-4-yl)methoxy]benzyl]amino]acetic acid]
Activity at 25 μM Step 1 293T cell: 2

Cc1oc(-c2ccc(C(F)(F)F)cc2)nc1COc1ccc(CN(CC(=O)O)S(=O)(=O)N(C)C)cc1 [Example 40, [N—(N,N-dimethylamino)sulfonyl-N-[4-[[2-(4-trifluoromethylphenyl)-5-methyloxazol-4-yl]methoxy]benzyl]amino]acetic acid]
Activity at 25 μM Step 1 293T cell: 2

Cc1oc(-c2ccc(C(F)(F)F)cc2)nc1COc1ccc(CN(CC(=O)O)S(=O)(=O)N2CCc3ccccc32)cc1 [Example 55, [N-(indolinyl)sulfonyl-N-[4-[[2-(4-trifluoromethylphenyl)-5-methyloxazol-4-yl]methoxy]benzyl]amino]acetic acid]
Activity at 25 μM Step 1 293T cell: 2

Cc1ccc(-c2nc(COc3ccc(CN(CC(=O)O)S(=O)(=O)N4CCCC4)cc3)c(C)o2)cc1 [Example 42, [N-(pyrrolidinyl)sulfonyl-N-[4-[[2-(4-methylphenyl)-5-methyloxazol-4-yl]methoxy]benzyl]amino]acetic acid]
Activity at 25 μM Step 1 293T cell: 3

Cc1nc(-c2ccc(C(F)(F)F)cc2)oc1COc1cccc(CN(CC(=O)O)S(=O)(=O)N2CCCC2)c1 [Example 26, [N-(pyrrolidinyl)sulfonyl-N-[3-[[2-(4-trifluoromethylphenyl)-4-methyloxazol-5-yl]methoxy]benzyl]amino]acetic acid]
Activity at 25 μM Step 1 293T cell: 2

Cc1nc(-c2ccc(C(F)(F)F)cc2)oc1COc1cccc(CN(CC(=O)O)S(=O)(=O)N2CCOCC2)c1 [Example 29, [N-(morpholinyl)sulfonyl-N-[3-[[2-(4-trifluoromethylphenyl)-4-methyloxazol-5-yl]methoxy]benzyl]amino]acetic acid]
Activity at 25 μM Step 1 293T cell: 2

Cc1oc(-c2ccccc2)nc1COc1cccc(CN(CC(=O)O)S(=O)(=O)N2CCc3ccccc32)c1 [Example 30, [N-(indolinyl)sulfonyl-N-[3-[(2-phenyl-5-methyloxazol-4-yl)methoxy]benzyl]amino]acetic acid]
Activity at 25 μM Step 1 293T cell: 2

Cc1oc(-c2ccc(C(F)(F)F)cc2)nc1CCOc1ccc(CN(CC(=O)O)S(=O)(=O)N2CCCc3ccccc32)cc1 [Example 122, [N-(1,2,3,4-tetrahydroquinolinyl)sulfonyl-N-[4-[2-[2-(4-trifluoromethylphenyl)-5-methyloxazol-4-yl]ethoxy]benzyl]amino]acetic acid]
Activity at 25 μM Step 1 293T cell: 2

Cc1oc(-c2ccc(C(F)(F)F)cc2)nc1COc1ccc(CN(CC(=O)O)S(=O)(=O)N(C)c2ccccc2)cc1 [Example 47, [N—[(N-methyl-N-phenyl)amino]sulfonyl-N-[4-[[2-(4-trifluoromethylphenyl)-5-methyloxazol-4-yl]methoxy]benzyl]amino]acetic acid]
Activity at 25 μM Step 1 293T cell: 2

Cc1oc(-c2ccccc2)nc1CCOc1ccc(CN(CC(=O)O)S(=O)(=O)N(C)c2ccc(Cl)cc2)cc1 [Example 109, [N—[[N-methyl-N-(4-chlorophenyl)]amino]sulfonyl-N-[4-[2-(2-phenyl-5-methyloxazol-4-yl)ethoxy]benzyl]amino]acetic acid]
Activity at 25 μM Step 1 293T cell: 3

Cc1oc(-c2ccccc2)nc1COc1cccc(CN(CC(=O)O)S(=O)(=O)N(C)c2ccc(Cl)cc2)c1 [Example 18, [N—[[N-methyl-N-(4-chlorophenyl)]amino]sulfonyl-N-[3-[(2-phenyl-5-methyloxazol-4-yl)methoxy]benzyl]amino]acetic acid]
Activity at 25 μM Step 1 293T cell: 2

Cc1ccc(-c2nc(COc3cccc(CN(CC(=O)O)S(=O)(=O)N(C)c4ccccc4)c3)c(C)o2)cc1 [Example 15, [N—[(N-methyl-N-phenyl)amino]sulfonyl-N-[3-[[2-(4-methylphenyl)-5-methyloxazol-4-yl]methoxy]benzyl]amino]acetic acid]
Activity at 25 μM Step 1 293T cell: 2

Cc1oc(-c2ccc(C(F)(F)F)cc2)nc1COc1cccc(CN(CC(=O)O)S(=O)(=O)N2CCCC2)c1 [Example 25, [N-(pyrrolidinyl)sulfonyl-N-[3-[[2-(4-trifluoromethylphenyl)-5-methyloxazol-4-yl]methoxy]benzyl]amino]acetic acid]
Activity at 25 μM Step 1 293T cell: 2

Cc1oc(-c2ccc(C(F)(F)F)cc2)nc1CCOc1cccc(CN(CC(=O)O)S(=O)(=O)N2CCN(C)CC2)c1 [Example 89, [N-(4-methyl-1-piperazinyl)sulfonyl-N-[3-[2-[2-(4-trifluoromethylphenyl)-5-methyloxazol-4-yl]ethoxy]benzyl]amino]acetic acid]
Activity at 25 μM Step 1 293T cell: 1

Cc1oc(-c2ccccc2)nc1COc1ccc(CN(CC(=O)O)S(=O)(=O)N(C)C)cc1 [Example 38, [N—(N,N-dimethylamino)sulfonyl-N-[4-[(2-phenyl-5-methyloxazol-4-yl)methoxy]benzyl]amino]acetic acid]
Activity at 25 μM Step 1 293T cell: 2

Cc1ccc(-c2nc(COc3ccc(CN(CC(=O)O)S(=O)(=O)N4CCN(C)CC4)cc3)c(C)o2)cc1 [Example 43, [N-(4-methyl-1-piperazinyl)sulfonyl-N-[4-[[2-(4-methylphenyl)-5-methyloxazol-4-yl]methoxy]benzyl]amino]acetic acid]
Activity at 25 μM Step 1 293T cell: 2

Cc1oc(-c2cccs2)nc1CCOc1ccc(CN(CC(=O)O)S(=O)(=O)N(C)C)cc1 [Example 104, [N—(N,N-dimethylamino)sulfonyl-N-[4-[2-[2-(thiophen-2-yl)-5-methyloxazol-4-yl]ethoxy]benzyl]amino]acetic acid]
Activity at 25 μM Step 1 293T cell: 1
